pIC50: −log10 of the molar value.
How the values were obtained:
A427 cells = assay: Cytotoxicity assay in A427 cell line (resazurin); type: cell-based; details: Homo sapiens, A-427, A427 lung epithelial cell line, 72 hr incubation, inhibition of proliferation
Description: A427 (HTB-53; ATCC), a lung epithelial cell line, was seeded in medium (MEM, 41090101; Gibco) at a cell count of 1500 cells per 100 μL per well in a 96 well edge plate (167425; ThermoFisher). Cells were allowed to grow at 37° C. for 24 hr in 5% CO2 environment (culture conditions) in a Nuaire incubator (humidified). Serially diluted test compounds (100 μL) within the desired testing concentration ranges were added to the culture plate and the cells were further incubated in culture conditions for 72 hr. The experiment was terminated at the designated incubation time by replacing the medium with 100 μL of 1 mM of resazurin (R7017; Sigma) prepared in culture medium, and the plates were further incubated in culture conditions for 4-6 hr. Fluorescence was recorded using a multimodal plate reader (Biotek Synergy Neo) at an excitation wavelength of 535 nm and emission wavelength of 590 nm to obtain relative fluorescence units. Data were analysed as follows: the background fluorescence (blank containing only medium) value was subtracted from each reading and normalized with the vehicle control (DMSO treated cells) to obtain percent survival/proliferation. Percent survival was subtracted from 100 to get the percent inhibition of proliferation which was used to calculate IC50 values. Potency of compounds in other cell lines (such as A549, As-Pc-1, Panc 10.05, A172, U-87 MG) may be determined in an analogous manner.

WEE1 kinase enzyme = target: T1, WEE1 kinase enzyme (Homo sapiens, UniProt P30291); assay: WEE1 IC50 determination, LanthaScreen Terbium Labeled TR-FRET kinase assay; type: biochemical; details: WEE1 enzyme 1 nM, ATP 10 μM, 1 h
T1 construct: purchased Invitrogen, Life Technologies PR7373A
T1 sequence (P30291 whole entry): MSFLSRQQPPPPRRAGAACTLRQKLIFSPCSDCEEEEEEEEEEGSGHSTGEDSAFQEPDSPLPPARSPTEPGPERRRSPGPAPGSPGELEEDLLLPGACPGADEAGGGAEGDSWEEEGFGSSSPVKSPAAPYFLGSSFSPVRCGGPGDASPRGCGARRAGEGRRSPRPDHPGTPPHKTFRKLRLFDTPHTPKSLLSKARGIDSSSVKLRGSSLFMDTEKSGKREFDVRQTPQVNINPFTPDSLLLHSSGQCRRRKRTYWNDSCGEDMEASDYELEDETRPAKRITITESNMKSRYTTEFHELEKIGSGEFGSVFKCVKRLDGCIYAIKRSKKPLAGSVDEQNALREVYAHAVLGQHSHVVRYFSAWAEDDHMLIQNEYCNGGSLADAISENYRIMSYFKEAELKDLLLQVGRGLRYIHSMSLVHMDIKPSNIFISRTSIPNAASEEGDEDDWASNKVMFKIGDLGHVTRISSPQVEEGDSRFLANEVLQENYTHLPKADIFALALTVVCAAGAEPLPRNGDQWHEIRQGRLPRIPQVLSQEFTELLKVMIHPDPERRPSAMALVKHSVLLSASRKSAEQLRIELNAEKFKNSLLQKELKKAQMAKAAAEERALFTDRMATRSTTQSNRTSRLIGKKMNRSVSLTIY
Description: IC50 values of compounds against WEE1 kinase enzyme were determined by LanthaScreen™ Terbium Labeled TR-FRET assay. Kinase assays were performed in 1× kinase buffer (#PV6135, Invitrogen, Life Technologies Grand Island, N.Y.) where total reaction volume was 10 μL in low-volume 384-well plates (#4511, Corning). Serially diluted compounds (3-fold) were incubated with WEE1 Enzyme (1 nM) (#PR7373A, Invitrogen, Life Technologies, Grand Island, N.Y.) for 10 min, and a mixture of ATP (10 μM) (#A1852, Sigma, St. Louis, Mo.) and fluorescent-PolyGT substrate (200 nM) (#PV3610, Invitrogen, Life Technologies, Grand Island, N.Y.) was added and incubated in the dark at room temperature for 1 h. After 1 h, a 10 μL stop solution containing terbium labeled antibody (4 nM) (#PV3529, Invitrogen, Life Technologies Grand Island, N.Y.) and EDTA (#E5134, Sigma, St. Louis, Mo.) (20 mM) in TR-FRET dilution buffer (#PV3574, Invitrogen, Life Technologies, Grand Island, N.Y.) was added. Readings were taken in a Synergy Neo Plate reader (BioTek, Winooski, Vt.) at single excitation of 340 nm and dual emission at 495 nm and 520 nm respectively.
The % activity of test samples was calculated as (Sample−Min)*100/(Max−Min). [Max: DMSO control, complete reaction with enzyme & DMSO and Min: No enzyme & DMSO]. Percent inhibition (100−% activity) was fitted to the “four-parameter logistic model” in XLfit for determination of IC50 values.

[1] = test system: phospho-CDC2 (Tyr15) in A427 cells; assay: Phospho-CDC2 (Tyr15) sandwich ELISA in A427 cells; type: cell-based; details: Homo sapiens, A-427, PathScan Phospho-CDC2 (Tyr15) ELISA, specified time (e.g., 24 hr)
Description: Changes in the levels of phospho-CDC2 following treatment of cells with test compounds were assessed by enzyme-linked immunosorbent assay (ELISA). A427 cells were plated in 6-well plates and cultured for 24 hr to approximately 80-90% confluency. Medium was replaced, and the cells were treated with the vehicle control or the test compound at several different concentrations. After incubation of treated cells in cell culture conditions for a specified time (e.g., 24 hr), cells were rinsed with ice-cold PBS and lysed in 1× cell lysis buffer containing protease inhibitors and phosphatase inhibitors. The cells were scraped from the plate with a cell scraper after a brief incubation on ice and transferred to a centrifuge tube, and then subjected to three freeze-thaw cycles in liquid nitrogen and a 37° C. water bath for further lysis. The lysates were centrifuged to pellet cell debris (using, for example, a 10 min centrifugation of 2000×g at 4° C.) and the supernatants transferred to fresh tubes on ice. The protein concentrations of the samples were estimated by the Bradford method or equivalent. The ELISA was carried out with the PathScan® Phospho-CDC2 (Tyr15) Sandwich ELISA Kit (Cat. #7176, Cell Signaling Technology, Danvers, Mass.) according to the manufacturer's instructions.

Row | SMILES | pIC50 (A427 cells) | pIC50 (WEE1 kinase enzyme) | pIC50 [1]
1 | CC(C)n1cc(-n2c3nc(Nc4ccc5c(c4)CCNC5)ncc3c(=O)n2C(C)C)cn1 [Compound 1.1, 2-isopropyl-1-(1-isopropyl-1H-pyrazol-4-yl)-6-((1,2,3,4-tetrahydroisoquinolin-6-yl)amino)-1,2-dihydro-3H-pyrazolo[3,4-d]pyrimidin-3-one] | < 4.52 | 6.97 | –
2 | COCC(C)(C)c1cccc(-n2c3nc(Nc4ccc5c(c4)CNCC5)ncc3c(=O)n2C(C)C)n1 [Compound 1.2, 2-isopropyl-1-(6-(1-methoxy-2-methylpropan-2-yl)pyridin-2-yl)-6-((1,2,3,4-tetrahydroisoquinolin-7-yl)amino)-1,2-dihydro-3H-pyrazolo[3,4-d]pyrimidin-3-one] | 6.53 | 8.40 | –
3 | CC(C)n1c(=O)c2cnc(Nc3ccc4c(c3)CCNC4)nc2n1-c1cccc(C(=O)N(C)C)c1 [Compound 1.3, 3-(2-isopropyl-3-oxo-6-((1,2,3,4-tetrahydroisoquinolin-6-yl)amino)-2,3-dihydro-1H-pyrazolo[3,4-d]pyrimidin-1-yl)-N,N-dimethylbenzamide] | 5.09 | 8.70 | –
4 | CC(C)n1c(=O)c2cnc(Nc3ccc4c(c3)CNCC4)nc2n1-c1cccc(C(=O)N(C)C)c1 [Compound 1.4, 3-(2-isopropyl-3-oxo-6-((1,2,3,4-tetrahydroisoquinolin-7-yl)amino)-2,3-dihydro-1H-pyrazolo[3,4-d]pyrimidin-1-yl)-N,N-dimethylbenzamide] | 5.45 | 8.52 | –
5 | CC(C)N1CCc2cc(Nc3ncc4c(=O)n(C(C)C)n(-c5ccnc(C(C)(C)C)c5)c4n3)ccc2C1 [Compound 1.5, 1-(2-(tert-butyl)pyridin-4-yl)-2-isopropyl-6-((2-isopropyl-1,2,3,4-tetrahydroisoquinolin-6-yl)amino)-1,2-dihydro-3H-pyrazolo[3,4-d]pyrimidin-3-one] | 5.68 | 7.68 | –
6 | CC(C)n1c(=O)c2cnc(Nc3ccc4c(c3)CNCC4)nc2n1-c1ccc(C#N)cc1 [Compound 1.85, 4-(2-isopropyl-3-oxo-6-(1,2,3,4-tetrahydroisoquinolin-7-ylamino)-2,3-dihydro-1H-pyrazolo[3,4-d]pyrimidin-1-yl)benzonitrile] | 5.73 | 8.30 | 6.56
7 | CC(C)n1c(=O)c2cnc(Nc3ccc4c(c3)CCNC4)nc2n1-c1ccc(C#N)cc1 [Compound 1.86, 4-(2-isopropyl-3-oxo-6-(1,2,3,4-tetrahydroisoquinolin-6-ylamino)-2,3-dihydro-1H-pyrazolo[3,4-d]pyrimidin-1-yl)benzonitrile] | 5.97 | 8.10 | –
8 | CC(C)n1c(=O)c2cnc(Nc3ccc4c(c3)CCN(CCCN)C4)nc2n1-c1ccnc(C(C)(C)C)c1 [Compound 1.87, 2,2,2-trifluoroacetaldehyde compound with 6-((2-(3-aminopropyl)-1,2,3,4-tetrahydroisoquinolin-6-yl)amino)-1-(2-(tert-butyl)pyridin-4-yl)-2-isopropyl-1,2-dihydro-3H-pyrazolo[3,4-d]pyrimidin-3-one] | – | 8.40 | –
